Target: Recombinant human JAK1 catalytic domain (Homo sapiens (Human), UniProt P23458)
Assay: JAK1 inhibition assay
Type: biochemical
Settings: semi-quantitative score
Method: Plates were washed 6 times with 300 μL per well of a 75 mM phosphoric acid solution and the bottom of the plates was sealed. 40 μL/well of Microscint-20 was added, the top of the plates was sealed and readout was performed using the Topcount (Perkin Elmer). Kinase activity was calculated by subtracting counts per minute (cpm) obtained in the presence of a positive control inhibitor (10 μM staurosporine) from cpm obtained in the presence of vehicle. The ability of a test compound to inhibit this activity was determined as: Percentage inhibition=((cpm determined for sample with test compound present−cpm determined for sample with positive control inhibitor) divided by (cpm determined in the presence of vehicle−cpm determined for sample with positive control inhibitor))*100%.
Dose dilution series were prepared for the compounds enabling the testing of dose-response effects in the JAK1 assay and the calculation of the IC50 for each compound.

Sequence of Recombinant human JAK1 catalytic domain (P23458 850-1154): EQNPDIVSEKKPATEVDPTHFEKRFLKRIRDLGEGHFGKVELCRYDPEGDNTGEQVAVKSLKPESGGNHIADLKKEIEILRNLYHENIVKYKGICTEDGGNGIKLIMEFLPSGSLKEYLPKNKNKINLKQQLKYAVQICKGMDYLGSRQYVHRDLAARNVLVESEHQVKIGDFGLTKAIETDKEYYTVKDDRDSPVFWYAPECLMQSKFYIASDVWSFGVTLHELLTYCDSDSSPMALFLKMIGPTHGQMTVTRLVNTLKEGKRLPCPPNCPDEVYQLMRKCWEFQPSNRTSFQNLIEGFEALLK

Structure (SMILES) | IC50 [nM]
O=C(Nc1ccc(-c2cccc3nc(NC(=O)C4CC4)nn23)cc1)C1CCC1 [Compound 70, N-(4-(2-(cyclopropanecarboxamido)-[1,2,4]triazolo[1,5-a]pyridin-5-yl)phenyl)cyclobutanecarbox-amide] | 101 to 500
O=C(Nc1nc2cccc(-c3ccnc(N4CCC(CCc5ccccc5)CC4)c3)n2n1)C1CC1 [Compound 112, N-(5-(2-(4-phenethylpiperidin-1-yl)pyridin-4-yl)-[1,2,4]triazolo[1,5-a]pyridin-2-yl)cyclopropanecarboxamide] | > 1000
O=C(Nc1nc2cccc(-c3ccc(-c4cccnc4)nc3)n2n1)C1CC1 [Compound 68, N-(5-(2,3′-bipyridin-5-yl)-[1,2,4]triazolo[1,5-a]pyridin-2-yl)cyclopropanecarboxamide] | 101 to 500
O=C(Nc1nc2cccc(-c3ccc(NS(=O)(=O)c4ccccc4)nc3)n2n1)C1CC1 [Compound 180, N-(5-(6-(phenylsulfonamido)pyridin-3-yl)-[1,2,4]triazolo[1,5-a]pyridin-2-yl)cyclopropanecarboxamide] | 101 to 500
O=C(Nc1nc2cccc(-c3ccc(S(=O)(=O)Cc4cccnc4)cc3)n2n1)C1CC1 [Compound 195, N-(5-(4-(pyridin-3-ylmethylsulfonyl)phenyl)-[1,2,4]triazolo[1,5-a]pyridin-2-yl)cyclopropanecarboxamide] | 101 to 500
O=C(Nc1nc2cccc(-c3ccc(C(=O)N4CCC(O)(c5ccc(Cl)cc5)CC4)cc3)n2n1)C1CC1 [Compound 132] | 101 to 500
O=C(Nc1nc2cccc(-c3ccc(OCc4nnn[nH]4)cc3)n2n1)C1CC1 [Compound 158] | 101 to 500
O=C(Nc1nc2cccc(-c3ccc(C(=O)N4CCC(c5ccc(Cl)cc5)CC4)cc3)n2n1)C1CC1 [Compound 86] | < 100
CCCc1cc(C(=O)Nc2ccc(-c3cccc4nc(NC(=O)C5CC5)nn34)cc2)n(C)n1 [Compound 69] | 101 to 500
O=C(Nc1nc2cccc(-c3cnn(Cc4cccnc4)c3)n2n1)C1CC1 [Compound 185, Cyclopropanecarboxylic Acid [5-(1-pyridin-3-ylmethyl-1H-pyrazol-4-yl)-[1,2,4]triazolo[1,5-a]pyridin-2-yl]-amide] | < 100
O=C(Nc1nc2cccc(-c3ccc(S(=O)(=O)Cc4ccccn4)cc3)n2n1)C1CC1 [Compound 194, N-(5-(4-(pyridin-2-ylmethylsulfonyl)phenyl)-[1,2,4]triazolo[1,5-a]pyridin-2-yl)cyclopropanecarboxamide] | 101 to 500
CN1CCN(Cc2ccc(COc3ccc(-c4cccc5nc(NC(=O)C6CC6)nn45)cc3)cc2)CC1 [Compound 126, N-(5-(4-(4-((4-methylpiperazin-1-yl)methyl)benzyloxy)phenyl)-[1,2,4]triazolo[1,5-a]pyridin-2-yl)cyclopropanecarboxamide] | 101 to 500
Cc1nn(C)cc1S(=O)(=O)Nc1ccc(-c2cccc3nc(NC(=O)C4CC4)nn23)cc1 [Compound 65, N-(5-(4-(1,3-dimethyl-1H-pyrazole-4-sulfonamido)phenyl)-[1,2,4]triazolo[1,5-a]pyridin-2-yl)cyclopropanecarboxamide] | 101 to 500
CCCN(CC1CCCO1)C(=O)c1ccc(-c2cccc3nc(NC(=O)C4CC4)nn23)cc1 (centres unmarked) [Compound 136, 4-(2-(cyclopropanecarboxamido)-[1,2,4]triazolo[1,5-a]pyridin-5-yl)-N-propyl-N-((tetrahydrofuran-2-yl)methyl)benzamide] | 101 to 500
CC(C)N(Cc1ccc(N2CCCCC2)cc1)C(=O)c1ccc(-c2cccc3nc(NC(=O)C4CC4)nn23)cc1 [Compound 135, 4-(2-(cyclopropanecarboxamido)-[1,2,4]triazolo[1,5-a]pyridin-5-yl)-N-isopropyl-N-(4-(piperidin-1-yl)benzyl)benzamide] | 101 to 500
CC(=O)NC1CCN(C(=O)Cc2ccc(-c3cccc4nc(NC(=O)C5CC5)nn34)cc2)CC1 [Compound 323, Cyclopropanecarboxylic acid (5-{4-[2-(4-acetylamino-piperidin-1-yl)-2-oxo-ethyl]-phenyl}-[1,2,4]triazolo[1,5-a]pyridin-2-yl)-amide] | 501 to 1000
O=C(Nc1nc2cccc(-c3ccc(C(=O)N4CCC(Oc5cccnc5)CC4)cc3)n2n1)C1CC1 [Compound 110, N-(5-(4-(4-(pyridin-3-yloxy)piperidine-1-carbonyl)phenyl)-[1,2,4]triazolo[1,5-a]pyridin-2-yl)cyclopropanecarboxamide] | 101 to 500
CC(C)(CN1CCOCC1)NC(=O)c1ccc(-c2cccc3nc(NC(=O)C4CC4)nn23)cc1 [Compound 102, 4-(2-(cyclopropanecarboxamido)-[1,2,4]triazolo[1,5-a]pyridin-5-yl)-N-(2-methyl-1-morpholinopropan-2-yl)benzamide] | 101 to 500

Structure (SMILES) | IC50 [nM]
CN(Cc1ccccc1)C1CCN(C(=O)c2ccc(-c3cccc4nc(NC(=O)C5CC5)nn34)cc2)CC1 [Compound 103, N-(5-(4-(4-(benzyl(methyl)amino)piperidine-1-carbonyl)phenyl)-[1,2,4]triazolo[1,5-a]pyridin-2-yl)cyclopropanecarboxamide] | > 1000
O=C(Nc1nc2cccc(-c3ccc(C(=O)N4CCC(CCc5ccccc5)CC4)cc3)n2n1)C1CC1 [Compound 147] | 101 to 500
O=C(Nc1nc2cccc(-c3ccc(N4CCOCC4)cc3)n2n1)C1CC1 [Compound 129, N-(5-(4-morpholinophenyl)-[1,2,4]triazolo[1,5-a]pyridin-2-yl)cyclopropanecarboxamide] | > 1000
Cc1nccn1CCC1CCN(C(=N)c2ccc(-c3cccc4nc(NC(=O)C5CC5)nn34)cc2)CC1 [Compound 154, N-(5-(4-(imino(4-(2-(2-methyl-1H-imidazol-1-yl)ethyl)piperidin-1-yl)methyl)phenyl)-[1,2,4]triazolo[1,5-a]pyridin-2-yI)cyclopropanecarboxamide] | 101 to 500
O=C(Nc1nc2cccc(-c3cccc(CN4CCOCC4)c3)n2n1)C1CC1 [Compound 2, N-(5-(3-(morpholinomethyl)phenyl)-[1,2,4]triazolo[1,5-a]pyridin-2-yl)cyclopropanecarboxamide] | 101 to 500
O=C(Nc1nc2cccc(-c3ccc(N4CCNCC4)nc3)n2n1)C1CC1 [Compound 61, N-(5-(6-(piperazin-1-yl)pyridin-3-yl)-[1,2,4]triazolo[1,5-a]pyridin-2-yl)cyclopropanecarboxamide] | > 1000
O=C(Nc1nc2cccc(-c3ccc(C(=O)N4CCC(N5CCOCC5)CC4)cc3)n2n1)C1CC1 [Compound 101, N-(5-(4-(4-morpholinopiperidine-1-carbonyl)phenyl)-[1,2,4]triazolo[1,5-a]pyridin-2-yl)cyclopropanecarboxamide] | 101 to 500
CN(CCc1ccccn1)Cc1ccc(-c2cccc3nc(NC(=O)C4CC4)nn23)cc1 [Compound 155, N-(5-(4-((methyl(2-(pyridin-2-yl)ethyl)amino)methyl)phenyl)-[1,2,4]triazolo[1,5-a]pyridin-2-yl)cyclopropanecarboxamide] | > 1000
COCC(C)N(Cc1ccc(F)cc1)C(=O)c1ccc(-c2cccc3nc(NC(=O)C4CC4)nn23)cc1 (centres unmarked) [Compound 151, 4-(2-(cyclopropanecarboxamido)-[1,2,4]triazolo[1,5-a]pyridin-5-yl)-N-(4-fluorobenzyl)-N-(1-methoxypropan-2-yl)benzamide] | 101 to 500
CN(Cc1cccnc1)c1ccc(-c2cccc3nc(NC(=O)C4CC4)nn23)cc1 [Compound 162, N-(5-(4-(methyl(pyridin-3-ylmethyl)amino)phenyl)-[1,2,4]triazolo[1,5-a]pyridin-2-yl)cyclopropanecarboxamide] | > 1000
O=C(Nc1ccc(-c2cccc3nc(NC(=O)C4CC4)nn23)cc1)C1CCCCC1 [Compound 45, N-(4-(2-(cyclopropanecarboxamido)-[1,2,4]triazo[1,5-a]pyridin-5-yl)phenyl)cyclohexanecarbox-amide] | 101 to 500
CN1CCN(c2ccc(COc3ccc(-c4cccc5nc(NC(=O)C6CC6)nn45)cc3)cn2)CC1 [Compound 167, N-(5-(4-((6-(4-methylpiperazin-1-yl)pyridin-3-yl)methoxy)phenyl)-[1,2,4]triazolo[1,5-a]pyridin-2-yl)cyclopropanecarboxamide] | 101 to 500
O=C(Nc1nc2cccc(-c3ccc(OCCc4cccnc4)cc3)n2n1)C1CC1 [Compound 127, N-(5-(4-(2-(pyridin-3-yl)ethoxy)phenyl)-[1,2,4]triazolo[1,5-a]pyridin-2-yl)cyclopropanecarboxamide] | 101 to 500
Cc1cc(CNc2ccc(-c3cccc4nc(NC(=O)C5CC5)nn34)cn2)nn1C [Compound 173, N-(5-(6-((1,5-dimethyl-1H-pyrazol-3-yl)methylamino)pyridin-3-yl)-[1,2,4]triazolo[1,5-a]pyridin-2-yl)cyclopropanecarboxamide] | > 1000
O=C(Nc1nc2cccc(-c3cnc(N4CCCCC4)nc3)n2n1)C1CC1 [Compound 9, N-(5-(2-(piperidin-1-yl)pyrimidin-5-yl)-[1,2,4]triazolo[1,5-a]pyridin-2-yl)cyclopropanecarboxamide] | > 1000
COc1ccccc1C1CCN(C(=O)c2ccc(-c3cccc4nc(NC(=O)C5CC5)nn34)cc2)CC1 [Compound 131, N-(5-(4-(4-(2-methoxyphenyl)piperidine-1-carbonyl)phenyl)-[1,2,4]triazolo[1,5-a]pyridin-2-yl)cyclopropanecarboxamide] | 101 to 500
O=C(Nc1nc2cccc(-c3ccc(C(=O)N(Cc4ccc(F)cc4)CC4CCCO4)cc3)n2n1)C1CC1 (centres unmarked) [Compound 153, 4-(2-(cyclopropanecarboxamido)-[1,2,4]triazolo[1,5-a]pyridin-5-yl)-N-(4-fluorobenzyl)-N-((tetrahydrofuran-2-yl)methyl)benzamide] | 101 to 500

Source: patent US10206907B2, “Compounds useful for the treatment of degenerative and inflammatory diseases” (GALAPAGOS NV, priority 2008, dated 2019)
